Consider 18 compounds from paper PMC7477874, “Targeting L-Proline Uptake as New Strategy for Anti-chagas Drug Development” (Frontiers in Chemistry, 2020).

For data set [1], the system named is T. cruzi epimastigotes (CL strain clone 14). Put plainly: Growth inhibition assay on T. cruzi epimastigotes. The conditions noted are these: for Times more active than T4C: T. cruzi epimastigotes, IC50 relative to T4C (890 μM); for Effect on parasite growth at the maximum concentration: 100 μM. Type of data set: cell-based, Trypanosoma cruzi. How it is done: T. cruzi CL strain clone 14 epimastigotes (Brener and […], [1965]) were maintained in the exponential growth phase by subculturing every 48 h in Liver Infusion Tryptose (LIT) medium supplemented with 10% FCS (Vitrocell, Campinas, São Paulo, Brazil) at 28 °C. T. cruzi epimastigotes in the exponential growth phase (5.0-6.0 x 10^7 cells mL^-1) were cultured in fresh LIT medium. The cells were treated with different concentrations of drugs or not treated (negative control). A combination of Rotenone (60 μM) and Antimycin (0.5 μM) was used as a positive control for inhibition as previously described. (Magdaleno et al., [2009]) The cells (2.5 x 10^6 mL^-1) were transferred to 96-well culture plates and incubated at 28 °C. Cell proliferation was quantified by reading the optical density (OD) at 620 nm for 8 days. The OD was converted to cell density values (cells per mL) using a linear regression equation previously obtained under the same conditions. The concentration of compounds that inhibited 50% of parasite proliferation (IC50) was determined during the exponential growth phase (4 days) by fitting the data to a typical sigmoidal dose-response curve using OriginPro8. The compounds were evaluated in quadruplicate in each experiment. The results shown here correspond to three independent experiments. As a cell growth inhibition control, growth curves in which […] were added to the culture medium were run in parallel for all experiments.

In the next data set the test system is L-proline transporter. Briefly: L-Proline transport competition assay in T. cruzi epimastigotes. Type of data set: cell-based, Trypanosoma cruzi. Conditions: 3.1 mM analog; for Proline uptake inhibition (in words): 0.31 mM L-proline. How it is done:
Parasites in exponential growth phase were washed three times by centrifugation and resuspended in phosphate buffered saline (PBS), pH 7.4. Cells were counted in a Neubauer chamber, adjusted with the same buffer to a final density of 200 × 10^6 cells/mL and distributed in aliquots of 100 μL (containing 20 × 10^6 cells each). Transport assays were initiated by the addition to the assay tubes of 100 μL of the desired dilution of L-proline in PBS in the presence of […] of L-[3H] proline. Unless otherwise specified, V0 was measured at 28 °C for 30 s by incorporation of 0.75 and 3 mM L-proline traced with 1 μCi of U-^14C-L-Pro (Perkin Elmer). In all cases, proline transport was stopped by addition of […] of cold 50 mM proline in PBS (pH 7.4), and rapid washing by centrifugation at 10,000x g for 2 min. Background values in each experiment were measured by simultaneous addition of radiolabeled L-proline and stop solution as previously described (Silber et al., [2002]). For the competition assays, the transport experiments were performed as described above using the L-Pro concentration corresponding to the Km (0.31 mM). Those conditions were chosen considering an inhibitory activity by structurally related compounds should be competitive, and so, should be evidenced by a change in the […] at L-Pro concentrations close to the Km. Non-competitive inhibitors, if any, should diminish Vmax, which is measured at 10 x Km L-Pro (3.1 mM) (Silber et al., [2002]). […] The analogs were assayed on T. cruzi epimastigotes incubated with proline at the transporter Km concentration (0.31 mM), and the analogs were assayed at concentration 10-fold higher (3.1 mM). […] The oleyl derivate (3k), with an unsaturated fatty tail, has a similar IC50 on T. cruzi epimastigotes compared to the cetyl analog (3j) showing no inhibition in terms of proline uptake (Table 2).  Figure 4 Proline uptake assay. Pro control = Proline control, Pro comp = L-Proline as competitor. 3i-k and 3n = proline level incubated (*p < 0.05) with selected analogs. Pro control (0.31 mM L-proline, [^3H] proline, PBS). Pro Comp (3.1 mM L-proline, [^3H] proline, PBS). Compounds 3i-k and 3n (0.31 mM L-proline, 3.1 mM analog 3x, [^3H] proline, PBS). Stop solution: 50 mM L-proline added after 30 s.

In the next data set the test system is Vero cells. Briefly: Cytotoxicity assay on Vero cells (MTT). Format: cell-based, African green monkey. The conditions noted are these: for IC50: Chlorocebus sabaeus, Vero, 48 h, MTT. The protocol:
To evaluate the analogs toxicity, Vero cells previously plated on 96 multi-well plate in DMEM 2% FBS and incubated for 48 h at 37 °C in a humid atmosphere containing 5% CO2, were incubated with […] of DMEM 2% FBS supplemented with each analog for 48 h. The concentration (μM) was different with each analog:
The viability of cells was measured by MTT dye (3-(4,5-Dimethylthiazol-2-yl)-2,5-diphenyltratazolium bromide, Sigma-Aldrich) colorimetric method. Benznidazole and DMSO were used as positive and negative controls, respectively. Data are expressed as means ± SD of the results of three independent assays of each condition.

Data set [2] has as its system T. cruzi epimastigotes (CL strain clone 14). The conditions noted are these: cited from earlier work.
The mark [3] stands for this setting: Trypanosoma cruzi, 96 h, epimastigotes CL14, IC50 at 4 days, means (SD) from three independent experiments, max. concentration 100 μM, read-out: T. cruzi IC50.
[4] abbreviates: epimastigotes CL14, IC50 at 4 days, means (SD) from three independent experiments, max. concentration 100 μM, read-out: T. cruzi IC50.

Several values for one entry are separate records, joined by “and”; a condition that tells them apart may be missing. Equal entries are not always repeated. Entries after “also recorded” stand apart in the source; their conditions may differ. Where two headings read alike, the source gives them in different places.

For the compound `CCCCCCCC/C=C\CCCCCCCCn1cc(CN2CCC[C@H]2C(=O)OC)nn1` [Compound 3k, Methyl (Z)-((1-(Octadec-9-en-1-yl)-1H-1,2,3-Triazol-4-yl)Methyl)-L-Prolinate], the “Times more active than T4C” value in data set [1] is on record as 22. In addition, the IC50 in data set [1] (setting [3]) is below 0.04 mM; in data set [1] (setting [4]), < 0.05 mM and 0.0351 mM; with Vero cells, 17 µM. Further, the “% of Proline inh.” value with L-proline transporter (0.31 mM L-proline (Km), 30 s) was 0%. For the same compound, the “Proline uptake inhibition (in words)” value in the data set on L-proline transporter is recorded as “no inhibition”. In addition, the “Selectivity index (IC50 Vero cells / IC50 T. cruzi epimastigotes)” value with Vero cells stood at 0.43.
Regarding `CCOC(=O)CCCCn1cc(CN2CCC[C@H]2C(=O)OC)nn1` [Compound 3b, Methyl ((1-(5-Ethoxy-5-Oxopentyl)-1H-1,2,3-Triazol-4-yl)Methyl)-L-Prolinate], the IC50 in data set [1] (setting [3]) is above 0.1 mM. In data set [1] (epimastigotes), the “Effect on parasite growth at the maximum concentration” value (shortened to “Effect on parasite growth”) is “did not affect the parasite growth; also recorded: inactive”.
The compound `CCCCCCCCCCCCCCCCCCCCn1cc(CN2CCC[C@H]2C(=O)OC)nn1` [Compound 3l, Methyl ((1-Icosyl-1H-1,2,3-Triazol-4-yl)Methyl)-L-Prolinate] registered a melting point of 72.7 to 73.7 °C. Moreover, in data set [1] (setting [3]), the IC50 came out at 0.1 mM.
For the compound `O=C(O)[C@@H]1CSCN1` [Compound T4C, L-thiazolidine-4-carboxylic acid], in data set [2] (ref Magdaleno et al., 2009, read-out: IC50 on T. cruzi epimastigotes), the half-inhibitory concentration (IC50) was 890 µM.
Regarding `COC(=O)[C@@H]1CCCN1Cc1cn(CC=C(C)CCCC(C)CCCC(C)CCCC(C)C)nn1` (stereo partly drawn) [Compound 3q, Methyl ((1-(3,7,11,15-Tetramethylhexadec-2-en-1-yl)-1H-1,2,3-Triazol-4-yl)Methyl)-L-Prolinate], the IC50 in data set [1] (setting [3]) is 0.0483 ± 0.00581 mM.
Consider `COC(=O)[C@@H]1CCCN1Cc1cn(C/C=C(\C)CC/C=C(/C)CCC=C(C)C)nn1` [Compound 3o, Methyl ((1-((2E,6Z)-3,7,11-Trimethyldodeca-2,6,10-Trien-1-yl)-1H-1,2,3-Triazol-4-yl)Methyl)-L-Prolinate], for which the concentration for half-maximal inhibition (IC50) in data set [1] (setting [3]) was determined as 0.0586 ± 0.00137 mM; in data set [1] (Trypanosoma cruzi, epimastigotes, unit given as mM, read-out: T. cruzi epimastigotes IC50 (as restated in the discussion)), 0.0596 mM.
In the case of `CCOC(=O)Cn1cc(CN2CCC[C@H]2C(=O)OC)nn1` [Compound 3a, Methyl ((1-(2-Ethoxy-2-Oxoethyl)-1H-1,2,3-Triazol-4-yl)Methyl)-L-Prolinate], the IC50 in data set [1] (setting [3]) is above 0.1 mM. Also, in data set [1] (epimastigotes), the “Effect on parasite growth” value is “did not affect the parasite growth; also recorded: inactive”.
For the compound `CCCCCCCCCCn1cc(CN2CCC[C@H]2C(=O)OC)nn1` [Compound 3i, Methyl ((1-Decyl-1H-1,2,3-Triazol-4-yl)Methyl)-L-Prolinate], the “Times more active than T4C” value in data set [1] was determined as 23. In addition, the IC50 was below 0.04 mM in data set [1] (setting [3]); < 0.05 mM and 0.038 mM and 0.039 mM in data set [1] (setting [4]); 43 µM in the data set on Vero cells. Also, in the data set on L-proline transporter, the “Proline uptake inhibition (in words)” value is “markedly reduction of the internalized proline”. Moreover, in the data set with Vero cells, the “Selectivity index (IC50 Vero cells / IC50 T. cruzi epimastigotes)” value came to 1.13.
`COC(=O)[C@@H]1CCCN1Cc1cn(CC=Cc2ccccc2)nn1` [Compound 3f, Methyl ((1-Cinnamyl-1H-1,2,3-Triazol-4-yl)Methyl)-L-Prolinate]: in data set [1] (setting [3]), the half-maximal inhibitory concentration (IC50) was above 0.1 mM. Moreover, in data set [1] (epimastigotes), the “Effect on parasite growth” value was “did not affect the parasite growth; also recorded: inactive”.
Take `COC(=O)[C@@H]1CCCN1Cc1cn(C/C=C(\C)CCCC(C)CCCC(C)CCCC(C)C)nn1` (stereo partly drawn) [Compound 3p, Methyl ((1-((E)-3,7,11,15-Tetramethylhexadec-2-en-1-yl)-1H-1,2,3-Triazol-4-yl)Methyl) -L-Prolinate]: the IC50 in data set [1] (setting [3]) was 0.0483 mM; in data set [1] (setting [4]) it was 0.0697 ± 0.00217 mM.
With `O=C(Cn1ccnc1[N+](=O)[O-])NCc1ccccc1` [Benznidazole], the IC50 in data set [2] (epimastigotes, read-out: T. cruzi IC50) is 7 µM.
For `CCCCCCCCn1cc(CN2CCC[C@H]2C(=O)OC)nn1` [Compound 3h, Methyl ((1-Octyl-1H-1,2,3-Triazol-4-yl)Methyl)-L-Prolinate], the IC50 in data set [1] (setting [3]) is above 0.1 mM. Further, the “Effect on parasite growth” value in data set [1] (epimastigotes) is “did not affect the parasite growth; also recorded: inactive”.
Turning to `COC(=O)[C@@H]1CCCN1Cc1cn(Cc2ccc3ccccc3c2)nn1` [Compound 3g, Methyl ((1-(Naphthalen-2-Ylmethyl)-1H-1,2,3-Triazol-4-yl)Methyl)-L-Prolinate], the melting point was in the range of 64 to 64.9 °C. In addition, the IC50 in data set [1] (setting [3]) was 0.1 mM.
For the compound `COC(=O)[C@@H]1CCCN1Cc1cn(CCCc2ccccc2)nn1` [Compound 3e, Methyl ((1-(3-Phenylpropyl)-1H-1,2,3-Triazol-4-yl)Methyl)-L-Prolinate], the IC50 in data set [1] (setting [3]) was above 0.1 mM. In addition, the “Effect on parasite growth” value in data set [1] (epimastigotes) was “did not affect the parasite growth; also recorded: inactive”.
`COC(=O)[C@@H]1CCCN1Cc1cn(C2CCCCC2)nn1` [Compound 3d, Methyl ((1-Cyclohexyl-1H-1,2,3-Triazol-4-yl)Methyl)-L-Prolinate]: the IC50 in data set [1] (setting [3]) was above 0.1 mM. In addition, the “Effect on parasite growth” value in data set [1] (epimastigotes) was “did not affect the parasite growth; also recorded: inactive”.
The matching figures for `COC(=O)[C@@H]1CCCN1Cc1cn(CC=C(C)CCC=C(C)C)nn1` [Compound 3m, Methyl ((1-(3,7-Dimethylocta-2,6-Dien-1-yl)-1H-1,2,3-Triazol-4-yl)Methyl)-L-Prolinate]: above 0.1 mM and “did not affect the parasite growth; also recorded: inactive”.
On the same counts, the results for `COC(=O)[C@@H]1CCCN1Cc1cn(Cc2ccccc2)nn1` [Compound 3c, Methyl ((1-Benzyl-1H-1,2,3-Triazol-4-yl)Methyl)-L-Prolinate] are above 0.1 mM and “did not affect the parasite growth; also recorded: inactive”.
`COC(=O)[C@@H]1CCCN1Cc1cn(C/C=C(\C)CC/C=C(\C)CCC=C(C)C)nn1` [Compound 3n, Methyl ((1-((2E,6E)-3,7,11-Trimethyldodeca-2,6,10-Trien-1-yl)-1H-1,2,3-Triazol-4-yl)Methyl)-L-Prolinate]: the “Times more active than T4C” value in data set [1] stood at 18. In addition, the IC50 in data set [1] (setting [3]) was below 0.05 mM; in data set [1] (setting [4]), 0.0483 ± 0.00129 mM; with Vero cells, 14 µM. Besides, the “Proline uptake inhibition (in words)” value with L-proline transporter is “complete inhibition; also recorded: markedly reduction of the internalized proline”. Further, the “Selectivity index (IC50 Vero cells / IC50 T. cruzi epimastigotes)” value in the data set on Vero cells was 0.25.
